# Results: article PMC8869507, “Gel-Forming of Self-Assembling Peptides Functionalized with Food Bioactive Motifs Modulate DPP-IV and ACE Inhibitory Activity in Human Intestinal Caco-2 Cells” (Biomedicines, 2022)
# Read-outs that look alike come from different tables or passages of the source.
# Tests used:
# ACE [1] = tested on: ACE; parameters: method as in BIOPEP; details: from casein and soybean hydrolysates; ref BIOPEP; cited from earlier work
# [2] = Atomic force microscopy (AFM) of peptide nanostructures; format: physicochemical; details: AFM tapping mode, 0.01% w/v in distilled water, sonicated 30 min, on mica
# Method: AFM measurements were captured in tapping mode using a Tosca system (Anton Paar, Graz, Austria) using single-beam silicon cantilever probes. Peptides were dissolved in distilled water at a final concentration of 0.01% w/v and sonicated for 30 min, the same day as imaging. Then, 5 μL of peptide solution were deposited for 5 min on freshly cleaved mica, and distilled water was used to remove peptides loosely bound to the mica.
# ACE [3] = assay: In vitro evaluation of ACE inhibition activity (HHL substrate); format: biochemical, porcine kidney; details: 1 mg/mL; HHL 2.5 mM, pH 8.3, preincubation 15 min 37 °C, incubation 60 min 37 °C, HPLC of hippuric acid
# Method: (§1) Peptide IAVP (1 mg/mL) was tested as previously described evaluating its DPP-IV and ACE inhibitory activity, respectively. For the evaluation of in vitro ACE inhibitory activity, a biochemical assay was used (further details are reported in supplementary materials).
# (§2) Supplementary Materials for Gel‐forming of self‐assembling peptides functionalized with food bioactive motifs modulate DPP‐IV and ACE inhibitory ac‐ tivity in human intestinal Caco‐2 cells
# (§3) Raffaele Pugliese1,*, Martina Bartolomei2, Carlotta Bollati2, Giovanna Boschin2, Anna Arnoldi2, and Carmen […]
# (§4) In vitro evaluation of ACE inhibition activity. […]
# (§5) The evaluation of the inhibition of ACE activity was based on the comparison between the concentrations of HA in the presence or absence of the inhibitor (Inhibitor Blank). The phenomenon of autolysis of HHL to give HA was evaluated by a reaction blank, i.e. a sample with the higher inhibitor concentration but without the enzyme. The percentage of ACE inhibition was calculated considering the area of the HA peak with the following formula: […] where AIB is the area of HA in the Inhibitor Blank (IB) sample (i.e., sample with enzyme but without inhibitor), AN is the area of HA in the samples containing different inhibitor amounts, and ARB is the area of HA in the Reaction Blank (RB) sample (i.e., sample without enzyme and with inhibitor at the highest concentration). […]
# DPP-IV [4] = assay: In vitro DPP-IV activity assay; format: biochemical; details: IAVP up to 1 mg/mL (1, 10, 100, 500 and 1000 μg/mL), Tris-HCl pH 8.0, H-Gly-Pro-AMC, 37°, 30 min, fluorescence 350/465 nm, triplicate
# Method: as §1, §2, §3, §4, §5
# ACE [5] = details: ACE activity expressed by Caco-2 cells, dose–response; no reference printed in the sentence (sentence before: ref [28]); cited from earlier work
# Description: This difference was explained ...
# Caco-2 cells = details: cited from earlier work
# HepG2 cells = details: human HepG2 cells, ref [3],[5], cited from earlier work; for LDL uptake: LDL from the extracellular environment; for LDLR protein levels: through HMGCoAR inhibition
# Description: (§6) IAVPTGVA and LTFPGSAED (dubbed, respectively, Soy1 and Lup1) are two peptides derived from the hydrolysis of soybean glycinin and lupin β-conglutin, respectively.
# HMGCoAR = details: in vitro; ref [1],[2],[3],[4]; cited from earlier work
# Description: as §6
# DPP-IV [6] = details: cited from earlier work; for DPP-IV activity in situ: human Caco-2 cells; for DPP-IV activity in situ / DPP-IV activity in vitro: ref [1]; for IC50: plain solutions, ref [4]
# Description: IAVPTGVA and LTFPGSAED (dubbed, respectively, Soy1 and Lup1) are two peptides derived from the hydrolysis of soybean glycinin and lupin β-conglutin, respectively. […] This difference was explained ...
# proteases = details: cited from earlier work; for bioavailability / resistance towards proteases: non-covalent encapsulation in RADA16 hydrogel vs plain solutions, previously reported by the authors, reference not given; for stability: non-covalently entrapped into RADA16, ref [10]
# Description: (§7) However, such food-derived peptides show low stability, bioavailability (due to their rapid degradation by active peptidases located on the intestinal microvilli), and a poor propensity to form functional biomaterials (i.e., hydrogels), thus precluding their practical applications.
# DPP-IV and ACE = details: cited from earlier work; for concentration encapsulated needed for positive effect on DPP-IV and ACE: encapsulated in RADA16 hydrogel, previously reported by the authors, reference not given; for capability of inhibiting DPP-IV and ACE: non-covalently entrapped into RADA16, ref [10]
# Description: as §7
# DPP-IV [7] = tested on: DPP-IV; parameters: method as in PMID 32223157; details: metabolite of Lup1; ref [28]; cited from earlier work
# ACE [8] = tested on: ACE; parameters: method as in PMID 32223157; details: metabolite of Lup1; ref [28]; cited from earlier work
# [9] = non-covalently entrapped in RADA16; previously reported by the authors, reference not given; cited from earlier work
# [10] = DPP-IV expressed by Caco-2 cells, read-out: IC50 cellular DPP-IV
# [11] = purified enzymes, read-out: IC50 in vitro DPP-IV
substance,measurement,setting,value
AVP,known ACE inhibitor peptide,ACE [1],known ACE inhibitor peptides
"Ac-IAVPTGVAGGGRADARADARADARADA-NH2 [fAP-Soy1, RADA16 functionalized at the N-terminus with Soy1 through a three-glycines spacer]",nanostructure morphology,[2],short single nanofibers
"Ac-LTFPGSAEDGGGRADARADARADARADA-NH2 [fAP-Lup1, RADA16 functionalized at the N-terminus with Lup1 through a three-glycines spacer]",nanostructure morphology,[2],"did not form nanofibers, but instead led to the formation of sparse round aggregates"
IAVP [small peptide from degradation of Soy1],reduction of in vitro ACE activity,ACE [3],20.1 ± 0.5%
same,DPP-IV inhibitory activity,DPP-IV [4],totally ineffective on DPP-IV
"IAVPTGVA [Soy1, peptide derived from the hydrolysis of soybean glycinin]",IC50,ACE [5],14.7 µM
same,transport across the intestinal barrier,"Caco-2 cells; Caco-2 trans-epithelial transport, ref [28],[29]",able to across the intestinal barrier
same,break-down fragments by intestinal peptidases,"Caco-2 cells; apical side of Caco-2 cells, trans-epithelial transport, ref [29]","metabolized in three breakdown fragments (AVPTGVA, IAVP, and IAV)"
same,susceptibility to metabolic activity of peptidase,"Caco-2 cells; apical side of human intestinal Caco-2 cells, compared with Lup1, ref [28]",more suitable for the metabolic activity of peptidase
same,LDL uptake,HepG2 cells,improved the ability of hepatic cells to uptake LDL
same,LDLR protein levels,HepG2 cells,upregulation of the LDLR protein levels
same,HMGCoAR inhibition,HMGCoAR,act as in vitro HMGCoAR and DPP-IV inhibitors
same,DPP-IV activity in situ,DPP-IV [6],drop the in vitro and in situ human Caco-2 cells DPP-IV activity
same,DPP-IV activity in vitro,DPP-IV [6],drop the in vitro and in situ human Caco-2 cells DPP-IV activity
same,IC50,DPP-IV [6]; [10],223 µM
same,IC50,DPP-IV [6]; [11],106 µM
same,bioavailability,proteases,higher bioavailability
same,resistance towards proteases,proteases,higher resistance towards the proteases
same,stability,proteases,significantly improved
same,concentration encapsulated needed for positive effect on DPP-IV and ACE,DPP-IV and ACE,more than 100 μM
same,capability of inhibiting DPP-IV and ACE,DPP-IV and ACE,significantly improved as well as their capability of inhibiting DPP-IV and ACE
LTFPG [peptide cleaved from Lup1],DPP-IV inhibitory activity,DPP-IV [7],losing that against DPP-IV
same,ACE inhibitory activity,ACE [8],maintains its ACE inhibitory activity
"LTFPGSAED [Lup1, peptide derived from the hydrolysis of lupin β-conglutin]",release from RADA16 hydrogel,[9],regularly delivered by the RADA16 hydrogel during the 360 min of controlled release tests
same,IC50,ACE [5],13.7 µM
same,transport across the intestinal barrier,Caco-2 cells,able to across the intestinal barrier
same,LDL uptake,HepG2 cells,improved the ability of hepatic cells to uptake LDL
same,LDLR protein levels,HepG2 cells,upregulation of the LDLR protein levels
same,HMGCoAR inhibition,HMGCoAR,act as in vitro HMGCoAR and DPP-IV inhibitors
same,DPP-IV activity in situ,DPP-IV [6],drop the in vitro and in situ human Caco-2 cells DPP-IV activity
same,DPP-IV activity in vitro,DPP-IV [6],drop the in vitro and in situ human Caco-2 cells DPP-IV activity
same,IC50,DPP-IV [6]; [10],208 µM
same,IC50,DPP-IV [6]; [11],228 µM
same,bioavailability,proteases,higher bioavailability
same,resistance towards proteases,proteases,higher resistance towards the proteases
same,stability,proteases,significantly improved
same,concentration encapsulated needed for positive effect on DPP-IV and ACE,DPP-IV and ACE,more than 100 μM
same,capability of inhibiting DPP-IV and ACE,DPP-IV and ACE,significantly improved as well as their capability of inhibiting DPP-IV and ACE
RADA16,nanostructure morphology,[2],self-assembles into long nanofibers
